Measured values as given in PubChem BioAssay AID588611 (Sanford-Burnham Center for Chemical Genomics, 2011).
Calls of active or inactive are those of the source.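 The calls were made as follows: active = mean EC50 below 100 µM; inactive = the rest.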

target: Intestinal-type alkaline phosphatase (Homo sapiens) (UniProt P09923); assay: human IAP enzyme activators, SAR follow-up, selectivity assay for mouse IAP activator project, biochemical, luminescence, set 2 (AID 588611); conditions: purified human IAP, CDP-Star luminescence, 30 min
Sequence (P09923 whole entry, looked up): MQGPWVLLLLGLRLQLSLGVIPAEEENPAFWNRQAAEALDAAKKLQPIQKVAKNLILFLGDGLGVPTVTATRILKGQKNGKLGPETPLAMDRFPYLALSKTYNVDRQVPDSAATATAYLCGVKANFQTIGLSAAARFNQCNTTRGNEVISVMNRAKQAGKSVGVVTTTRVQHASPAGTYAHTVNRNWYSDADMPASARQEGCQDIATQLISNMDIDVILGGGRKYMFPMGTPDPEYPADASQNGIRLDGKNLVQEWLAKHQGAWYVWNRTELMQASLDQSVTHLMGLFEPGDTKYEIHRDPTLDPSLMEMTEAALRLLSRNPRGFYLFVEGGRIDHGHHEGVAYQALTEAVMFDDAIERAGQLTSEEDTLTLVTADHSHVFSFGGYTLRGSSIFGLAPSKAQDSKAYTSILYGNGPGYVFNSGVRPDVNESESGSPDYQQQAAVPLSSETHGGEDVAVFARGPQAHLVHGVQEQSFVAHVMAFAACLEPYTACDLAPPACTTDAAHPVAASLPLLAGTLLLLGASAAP

Question: How did the EC50 turn out when `Cc1ccccc1CNC(=S)Nc1ccc(S(=O)(=O)N(C)C)cc1` was run?
Answer: > 100 µM (inactive)

Question: With `CN(C)S(=O)(=O)c1ccc(NC(=S)NCCc2ccccc2)cc1` as the molecule, how does the EC50 read?
Answer: > 100 µM (inactive)

Question: Which EC50 does the source give for `Cc1ccc(CNC(=S)Nc2cccc(S(=O)(=O)N(C)C)c2)cc1` here?
Answer: > 100 µM (inactive)

Question: `CN(C)S(=O)(=O)c1cccc(NC(=S)NC(C)(C)CC(C)(C)C)c1` was tested. Which EC50 did it give?
Answer: 70.7 µM

Question: Which EC50 does the source give for `CN(C)S(=O)(=O)c1cccc(NC(=S)NCCC(=O)N2CCCC2)c1` here?
Answer: > 100 µM (inactive)

Question: `CN(C)S(=O)(=O)c1cccc(NC(=S)NCCCN2CCCC2=O)c1` was tested. Which EC50 did it give?
Answer: > 100 µM (inactive)

Question: For `CN(C)S(=O)(=O)c1cccc(NC(=S)NCCN2CCCC2)c1`, which EC50 is on record?
Answer: > 100 µM (inactive)

Question: Which EC50 does the source give for `CN(CCc1ccccc1)C(=S)Nc1cccc(S(=O)(=O)N(C)C)c1` here?
Answer: > 100 µM (inactive)

Question: For `Cc1ccc(C)c(NC(=S)Nc2ccc(S(=O)(=O)N3CCCCC3)cc2)c1`, which EC50 is on record?
Answer: > 100 µM (inactive)

Question: Which EC50 does the source give for `COc1ccc(CNC(=S)Nc2ccc(S(=O)(=O)N3CCCCC3)cc2)cc1OC` here?
Answer: > 100 µM (inactive)

Question: How did the EC50 turn out when `CC(CNC(=S)Nc1cccc(S(=O)(=O)N(C)C)c1)N1CCN(c2ccccc2)CC1` (centres undefined) was run?
Answer: > 100 µM (inactive)

Question: How did the EC50 turn out when `CN(C)S(=O)(=O)c1cccc(NC(=S)NCCc2ccc(F)cc2)c1` was run?
Answer: > 100 µM (inactive)

Question: How did the EC50 turn out when `CCN(CC)S(=O)(=O)c1ccc(NC(=S)NC(c2ccccc2)c2ccccc2)cc1` was run?
Answer: 63.7 µM

Question: With `CN(C)CC(C)(C)CNC(=S)Nc1cccc(S(=O)(=O)N(C)C)c1` as the molecule, how does the EC50 read?
Answer: > 100 µM (inactive)

Question: Which EC50 does the source give for `O=C(NC(=S)Nc1cc(S(=O)(=O)N2CCOCC2)ccc1O)c1ccco1` here?
Answer: > 100 µM (inactive)

Question: `CC1CCN(S(=O)(=O)c2ccc(NC(=S)NCCC(c3ccccc3)c3ccccc3)cc2)CC1` was tested. Which EC50 did it give?
Answer: 53.1 µM

Question: Which EC50 does the source give for `O=C(CCc1ccccc1)NC(=S)Nc1cccc(S(=O)(=O)N2CCCC2)c1` here?
Answer: > 100 µM (inactive)

Question: `CN(C)S(=O)(=O)c1ccc(NC(=S)NCCN2CCCC2)cc1` was tested. Which EC50 did it give?
Answer: > 100 µM (inactive)

Question: `CN(C)S(=O)(=O)c1ccc(NC(=S)NC(c2ccccc2)c2ccccc2)cc1` was tested. Which EC50 did it give?
Answer: 62.4 µM

Question: `CN(C)S(=O)(=O)c1cccc(NC(=S)NCCc2cccc(O)c2)c1` was tested. Which EC50 did it give?
Answer: > 100 µM (inactive)

Question: With `CN(C)S(=O)(=O)c1ccc(NC(=S)NCCc2cccc(O)c2)cc1` as the molecule, how does the EC50 read?
Answer: > 100 µM (inactive)

Question: How did the EC50 turn out when `O=c1c2ccccc2[nH]c(=S)n1-c1cccc(S(=O)(=O)N2CCCC2)c1` was run?
Answer: > 100 µM (inactive)

Question: `O=S(=O)(c1ccc(NC(=S)NCCC(c2ccccc2)c2ccccc2)cc1)N1CCCCC1` was tested. Which EC50 did it give?
Answer: 53 µM

Question: How did the EC50 turn out when `Cc1ccc(CNC(=S)Nc2ccc(S(=O)(=O)N(C)C)cc2)cc1` was run?
Answer: 89.6 µM

Question: `COc1ccc(CCNC(=S)Nc2ccc(S(=O)(=O)N3CCCCC3)cc2)cc1` was tested. Which EC50 did it give?
Answer: 77.2 µM

Question: How did the EC50 turn out when `O=S(=O)(c1ccc(NC(=S)NCC(c2ccccc2)c2ccccc2)cc1)N1CCCCC1` was run?
Answer: 72.1 µM

Question: `O=S(=O)(c1ccc(NC(=S)NCC(c2ccccc2)c2ccccc2)cc1)N1CCCC1` was tested. Which EC50 did it give?
Answer: 58.5 µM

Question: With `CN(C)S(=O)(=O)c1cccc(NC(=S)NCCc2ccccc2)c1` as the molecule, how does the EC50 read?
Answer: > 100 µM (inactive)

Question: How did the EC50 turn out when `CN(C)S(=O)(=O)c1cccc(NC(=S)NCCc2cccc(F)c2)c1` was run?
Answer: > 100 µM (inactive)

Question: `COc1cccc(CCNC(=S)Nc2cccc(S(=O)(=O)N(C)C)c2)c1` was tested. Which EC50 did it give?
Answer: 82 µM

Question: `CN(C)S(=O)(=O)c1ccc(NC(=S)NCCC(c2ccccc2)c2ccccc2)cc1` was tested. Which EC50 did it give?
Answer: 57.2 µM

Question: How did the EC50 turn out when `CCOc1cc(CCNC(=S)Nc2ccc(S(=O)(=O)N(C)C)cc2)ccc1OC` was run?
Answer: > 100 µM (inactive)

Question: Which EC50 does the source give for `CC1CCN(S(=O)(=O)c2ccc(NC(=S)NC(c3ccccc3)c3ccccc3)cc2)CC1` here?
Answer: > 100 µM (inactive)

Question: For `O=S(=O)(c1ccc(NC(=S)NC(c2ccccc2)c2ccccc2)cc1)N1CCCCC1`, which EC50 is on record?
Answer: 68.7 µM

Question: How did the EC50 turn out when `CN(C)CCCNC(=S)Nc1cccc(S(=O)(=O)N(C)C)c1` was run?
Answer: > 100 µM (inactive)

Question: For `CN(C)S(=O)(=O)c1cccc(NC(=S)NCCC(c2ccccc2)c2ccccc2)c1`, which EC50 is on record?
Answer: > 100 µM (inactive)

Question: For `CCN(CC)S(=O)(=O)c1ccc(NC(=S)NCC(c2ccccc2)c2ccccc2)cc1`, which EC50 is on record?
Answer: 55.5 µM

Question: For `Cc1ccc(S(=O)(=O)N(C)C)cc1NC(=S)NC(C)CCC(C)C` (centres undefined), which EC50 is on record?
Answer: 66.6 µM

Question: Which EC50 does the source give for `CC1CCN(S(=O)(=O)c2ccc(NC(=S)NCC(c3ccccc3)c3ccccc3)cc2)CC1` here?
Answer: > 100 µM (inactive)

Question: With `Cc1ccc(S(=O)(=O)N(C)C)cc1NC(=S)NC1CCN(Cc2ccccc2)CC1` as the molecule, how does the EC50 read?
Answer: > 100 µM (inactive)

Question: For `CN(CCc1ccccn1)C(=S)Nc1cccc(S(=O)(=O)N(C)C)c1`, which EC50 is on record?
Answer: > 100 µM (inactive)

Question: How did the EC50 turn out when `O=C(NC(=S)Nc1cc(S(=O)(=O)N2CCOCC2)ccc1N1CCOCC1)c1ccco1` was run?
Answer: > 100 µM (inactive)

Question: With `CN(C)S(=O)(=O)c1ccc(NC(=S)NCc2ccc(Cl)cc2)cc1` as the molecule, how does the EC50 read?
Answer: > 100 µM (inactive)

Question: How did the EC50 turn out when `O=S(=O)(c1ccc(NC(=S)NCc2cccc(F)c2)cc1)N1CCCCC1` was run?
Answer: 76.8 µM

Question: `COc1cccc(CNC(=S)Nc2ccc(S(=O)(=O)N(C)C)cc2)c1` was tested. Which EC50 did it give?
Answer: > 100 µM (inactive)

Question: How did the EC50 turn out when `O=S(=O)(c1ccc(NC(=S)NC(c2ccccc2)c2ccccc2)cc1)N1CCCC1` was run?
Answer: 58.2 µM

Question: Which EC50 does the source give for `CC1CC(NC(=S)Nc2cccc(S(=O)(=O)N(C)C)c2)CC(C)N1` (centres undefined) here?
Answer: > 100 µM (inactive)

Question: `Cc1ccc(S(=O)(=O)N(C)C)cc1NC(=S)NCCCn1ccnc1` was tested. Which EC50 did it give?
Answer: > 100 µM (inactive)

Question: With `CC(CCc1ccccc1)NC(=S)Nc1cccc(S(=O)(=O)N(C)C)c1` (centres undefined) as the molecule, how does the EC50 read?
Answer: 69.4 µM

Question: For `CCN(CC)S(=O)(=O)c1ccc(NC(=S)NCCC(c2ccccc2)c2ccccc2)cc1`, which EC50 is on record?
Answer: 41.3 µM

Question: `CCN(CC)c1ccc(C(=O)NC(=S)Nc2cc(S(=O)(=O)N3CCOCC3)ccc2-n2cncn2)cc1` was tested. Which EC50 did it give?
Answer: > 100 µM (inactive)

Question: With `O=S(=O)(c1ccc(NC(=S)NCCC(c2ccccc2)c2ccccc2)cc1)N1CCCC1` as the molecule, how does the EC50 read?
Answer: 62.2 µM

Question: How did the EC50 turn out when `CCN(CC)CCCNC(=S)Nc1cccc(S(=O)(=O)N(C)C)c1` was run?
Answer: > 100 µM (inactive)

Question: `CN(C)S(=O)(=O)c1cccc(NC(=S)NCc2ccc(Cl)cc2)c1` was tested. Which EC50 did it give?
Answer: 75.5 µM

Question: Which EC50 does the source give for `CN(C)S(=O)(=O)c1ccc(NC(=S)NCCc2cccc(Br)c2)cc1` here?
Answer: 73.7 µM

Question: For `COc1ccc(CCNC(=S)Nc2ccc(S(=O)(=O)N3CCCCC3)cc2)cc1OC`, which EC50 is on record?
Answer: > 100 µM (inactive)

Question: With `Cc1ccc(S(=O)(=O)N(C)C)cc1NC(=S)NC(=O)C12CC3CC(CC(C3)C1)C2` as the molecule, how does the EC50 read?
Answer: > 100 µM (inactive)

Question: With `CN(C)S(=O)(=O)c1cccc(NC(=S)NCCc2ccc(Br)cc2)c1` as the molecule, how does the EC50 read?
Answer: 84.5 µM

Question: For `COc1ccccc1CNC(=S)Nc1ccc(S(=O)(=O)N(C)C)cc1`, which EC50 is on record?
Answer: > 100 µM (inactive)

Question: For `CN(C)S(=O)(=O)c1cccc(NC(=S)NCCCn2ccnc2)c1`, which EC50 is on record?
Answer: > 100 µM (inactive)

Question: With `CN(C)S(=O)(=O)c1cccc(NC(=S)NCC(c2ccccc2)c2ccccc2)c1` as the molecule, how does the EC50 read?
Answer: 39.4 µM

Question: `CN(C)S(=O)(=O)c1cccc(NC(=S)NC(c2ccccc2)c2ccccc2)c1` was tested. Which EC50 did it give?
Answer: 34 µM

Question: How did the EC50 turn out when `Cc1ccc(S(=O)(=O)N(C)C)cc1NC(=S)NC(C)CCCC(C)C` (centres undefined) was run?
Answer: 58 µM

Question: With `CN(C)S(=O)(=O)c1cccc(NC(=S)NCCc2cccc(Br)c2)c1` as the molecule, how does the EC50 read?
Answer: 65 µM
